Experimental data: PMC9095706, “TMEM16 scramblases thin the membrane to enable lipid scrambling” (Nature Communications, 2022)

Tests used:
afTMEM16 = biological target: T1, afTMEM16 (Aspergillus fumigatus, UniProt Q4WA18); assay: cryo-EM structure ([…] Å) in MSP1E3 nanodiscs; format: binding; conditions: 0.5 mM Ca2+; 7:3 DOPC:DOPG nanodisc; lipids D4 and D5 built as PG, near dimer interface and lipid pathway; models started from POPG (PGW) and truncated to density
T1 construct: gene AFUA_4G02970; expressed in S. cerevisiae from pDDGFP2, His tag removed with TEV protease, digitonin-purified homodimer, in MSP1E3 nanodiscs or proteoliposomes
T1 sequence (Q4WA18 1-735): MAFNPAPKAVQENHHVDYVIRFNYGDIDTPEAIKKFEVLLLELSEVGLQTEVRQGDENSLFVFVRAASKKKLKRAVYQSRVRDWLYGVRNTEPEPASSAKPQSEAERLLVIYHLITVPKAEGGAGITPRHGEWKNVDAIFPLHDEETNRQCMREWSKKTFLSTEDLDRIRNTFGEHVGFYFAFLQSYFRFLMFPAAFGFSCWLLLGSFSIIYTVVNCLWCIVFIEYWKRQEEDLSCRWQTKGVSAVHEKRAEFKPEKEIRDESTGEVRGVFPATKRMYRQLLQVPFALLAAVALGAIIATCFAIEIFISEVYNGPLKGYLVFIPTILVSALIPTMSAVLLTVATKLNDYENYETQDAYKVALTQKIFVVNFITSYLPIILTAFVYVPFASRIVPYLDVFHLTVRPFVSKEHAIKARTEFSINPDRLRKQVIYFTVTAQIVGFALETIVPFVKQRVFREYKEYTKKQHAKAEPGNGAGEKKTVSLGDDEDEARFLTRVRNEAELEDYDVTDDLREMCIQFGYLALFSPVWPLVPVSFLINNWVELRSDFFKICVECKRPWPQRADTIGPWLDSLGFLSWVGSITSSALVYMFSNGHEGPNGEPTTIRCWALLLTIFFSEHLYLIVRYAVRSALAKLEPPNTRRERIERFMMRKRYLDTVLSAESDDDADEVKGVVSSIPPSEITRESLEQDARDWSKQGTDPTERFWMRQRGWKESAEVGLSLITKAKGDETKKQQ

[1] = biological target: afTMEM16 scramblase from Aspergillus fumigatus (Aspergillus fumigatus); assay: cryo-EM structure; afTMEM16 reconstituted in lipid nanodiscs (MSP1E3 or MSP2N2; C14, C18 or C22 lipids, 7 PC:3 PG), 50 mM HEPES pH 8.0, 150 mM KCl with 0.5 mM CaCl2 or 5 mM EDTA; homodimer, C2 symmetric reconstructions

Row | Compound | cryo-EM structure (2.3 Å) in MSP1E3 nanodiscs (afTMEM16) | stoichiometry N [1]
1 | CCCCCCCC/C=C\CCCCCCCC(=O)OC[C@H](COP(=O)(O)OCC(O)CO)OC(=O)CCCCCCC/C=C\CCCCCCCC (mixture of isomers) [1,2-dioleoyl-sn-glycero-3-phospho-(1′-rac-glycerol)] | The downward slope of the OL starts at D5, a well-defined PG lipid | 
2 | afTMEM16 scramblase from Aspergillus fumigatus (natural protein) |  | 2
